In patent US20260335282A1, “NOVEL 3-ARYLIDENE-2-INDOLINONE DERIVATIVES FOR THERAPEUTIC USE” (ISTANBUL UNIVERSITESI REKTORLUGU, priority 2022, published 2026):
Several values for one entry are separate records, joined by “and”; a condition that tells them apart may be missing. Identical values can stand only once. Like-named read-outs stand apart in the source and are kept apart here.

What was measured:
Assay type in all cases: cell-based, human
[1] = system: MIAPaCa-2 cells; assay: Apoptosis/necrosis detection, Annexin V/PI flow cytometry, MiaPaca-2; conditions: for necrosis compared to control: MiaPaca-2; for apoptosis (early and late) compared to control: MiaPaca-2, IC50 values
Procedure: After incubation with 2-indolinone compounds (IC50 μM concentration; 48 and/or 72 hours), cells are washed twice with PBS and the cell pellet is suspended in Annexin V binding buffer. After this incubation, cells are incubated with FITC-conjugated Annexin V and propidium iodine staining solution for 15 minutes in the dark and at room temperature. Then, cells are analyzed by flow cytometry (Beckman coulter, Navios) (Wlodkowic, D., Skommer, J, Darzynkiewicz, Z. 2009. Flow cytometry-based apoptosis detection, Methods Mol Biol., 559, 1-14).

[2] = system: CAKI-1 cells; assay: MTT cytotoxicity, kidney cancer cells CAKI-1
In short: (§1)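 Healthy HUVEC cells grew in DMEM, cancer lines in RPMI-1640 or DMEM with 10% FBS. After overnight attachment, compounds (0.1, 1, 5, 10 μM) act for 48 and/or 72 h before a 4 h MTT step and 570/630 nm reading; IC50 is taken from dose-response curves.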

[3] = system: MDA-MB-231 cells; assay: MTT cytotoxicity, breast cancer cells MDA-MB-231; conditions: MTT, no * mark (incubation time not given)
In short: as §1

[4] = system: MCF-10F/Beas2b cells; assay: MTT cytotoxicity, healthy cells MCF-10F/Beas2b; conditions: cancer line not given; for Selectivite Index, MCF-10F/Beas2b (Table 2): MCF-10F/Beas2b vs colon or pancreas cancer cells; for Selectivite Index (SI), MCF-10F/Beas2b (Table 1): MCF-10F/Beas2b vs breast or kidney cancer cells
In short: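 Cells seeded at 5000 per well were exposed next day to compounds at 0.1, 1, 5 and 10 μM for 48 and/or 72 h. MTT (5 mg/ml) was added for 4 h, formazan dissolved in DMSO, and absorbance read at 570 nm against 630 nm. IC50 came from dose-response curves of % viability versus DMSO controls.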

[5] = system: HT-29 cells; assay: MTT cytotoxicity, colon cancer cells HT-29; conditions: MTT
In short: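 Cells were seeded at 5000 per well and treated next day with compound at 0.1, 1, 5 and 10 μM (final) for 48 and/or 72 h, with matched DMSO controls. MTT was added for 4 h and formazan was dissolved in DMSO and read at 570/630 nm. % viability against control gave IC50 from dose-response curves.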

[6] = system: A549 cells; assay: MTT cytotoxicity, lung cancer cells A549
In short: as §1

[7] = no * mark (incubation time not specified)
[8] = read-out: IC50, MDA-MB-231 (breast)

Structure (SMILES)	necrosis compared to control [1]	apoptosis (early and late) compared to control [1]	IC50 [2, 7]	IC50 [3, 8]	Selectivite Index, MCF-10F/Beas2b (Table 2) [4]	IC50 [5, 7]	IC50 [6, 7]	IC50 ([2]; Homo sapiens, CAKI-1, no * mark (incubation time not given))	IC50 ([3]; Homo sapiens, MDA-MB-231, read-out: IC50, MDA-MB-231 (breast))	Selectivite Index (SI), MCF-10F/Beas2b (Table 1) [4]	IC50 ([5]; Homo sapiens, HT-29, no * mark (incubation time not given))	IC50 ([6]; Homo sapiens, A549, no * mark (incubation time not given))
O=C1/C(=C\c2c[nH]c3ccccc23)c2ccccc2N1Cc1ccccc1 [Y1]	did not cause necrosis	increase in apoptosis at IC50 values was statistically significant	3.38 µM	9.82 µM	> 23.25	1.81 µM	9.72 µM	–	–	–	–	–
Cc1ccc2c(c1)/C(=C/c1c[nH]c3ccccc13)C(=O)N2Cc1ccccc1 [Y3]	did not cause necrosis	increase in apoptosis at IC50 values was statistically significant	–	–	> 76.92	–	–	4.01 µM	3.57 µM	> 11.49	2.43 µM	3.97 µM
O=C1/C(=C\c2c[nH]c3ccccc23)c2cc(OC(F)(F)F)ccc2N1Cc1ccccc1 [Y4]	did not cause necrosis	increase in apoptosis at IC50 values was statistically significant	3.79 µM	> 10 µM	> 17.54 and > 18.87	1.75 µM	> 10 µM	–	–	–	–	–
Cc1ccc2c(c1)/C(=C/c1c[nH]c3ccccc13)C(=O)N2Cc1cccc(F)c1 [Y8]	did not cause necrosis	increase in apoptosis at IC50 values was statistically significant	3.28 µM	7.36 µM	> 18.52	5 µM	8.76 µM	–	–	> 10.75	–	–
